# Laboratory results: US9562053B2, “Benzo-fused heterocyclic derivatives useful as agonists of GPR120” (Janssen Pharmaceutica NV, priority 2013, dated 2017)
# Key:
# C57bl/6J Mice = test: C57bl6 mouse OGTT; assay type: in vivo
# Method: Male, C57bl/6J Mice were ordered in at 8 weeks of age from Jackson Labs. Individual mice weighed anywhere in the range of 25-30 grams on study day. The mice were fasted, with removal of food occurring at 7 am on the morning of the study. Animals were moved into the room at 10:00 am, to give them time to acclimate. Glucose (insulin syringes) was drawn up either the night before or the morning of the study. Glucose was dosed (IP) at 1.5 g/kg at 7.5 ml/kg (20% glucose straight TEKNOVA, 250 ml sterile bottle w/catalogue number G0525). Test compounds were kept spinning and were only drawn into the syringes prior to study commencement. Animals were bled via tail snip to determine basal glucose levels prior to dosing of treatments. An Ascensia BREEZE Blood Glucose Monitoring System by Bayer (using unique 10-test disks) was used for determining glucose levels. The bleeds started at approximately 12:45 pm and dosing started, at 1-minute intervals, immediately after. All groups were dosed 30 minutes prior to glucose administration at a dose volume of 10 ml/kg (the dose volume was calculated separately for each individual animal). Thirty minutes after the first dose animals were bled again for a second baseline, or T=0, and immediately dosed with glucose via an i.p. injection. The exact dose volume for glucose was also calculated separately for each individual animal. Glucose measurements were taken at −30 min prior to compound dose, at t=0 (immediately prior to glucose dose), and at 15, 30, 45, 60, 90 min post glucose dose.
# Glucose values were entered into an Excel sheet and graphed in GraphPad Prism. The following were calculated from Prism: Change from −30 to 0 BSLN Glucose, Raw Glucose AUC −30 to 90 min, Delta Glucose AUC −30 to 90 min, Raw Glucose AUC 0 to 90 min, Delta Glucose AUC 0 to 90 min.
# The assay design is the same as that described above for the C57bl6 mouse IPGTT. The difference is that glucose was dosed PO at 3 g/kg, 7.5 ml/kg of 40% glucose.
# [1] = target: T1, long form of human GPR120 (Homo sapiens, UniProt Q5NUL3); test: Human GPR120 DiscoveRx PathHunter Beta-Arrestin Assay, Procedure β-arrestin A (3000 cells per well); assay type: cell-based; settings: read-out: GPR120 B-arrestin A EC50
# T1 construct: host or cells: PathHunter CHO-K1 GPR120 β-Arrestin Cell Line
# T1 sequence (Q5NUL3 1-377 isoform Q5NUL3-1): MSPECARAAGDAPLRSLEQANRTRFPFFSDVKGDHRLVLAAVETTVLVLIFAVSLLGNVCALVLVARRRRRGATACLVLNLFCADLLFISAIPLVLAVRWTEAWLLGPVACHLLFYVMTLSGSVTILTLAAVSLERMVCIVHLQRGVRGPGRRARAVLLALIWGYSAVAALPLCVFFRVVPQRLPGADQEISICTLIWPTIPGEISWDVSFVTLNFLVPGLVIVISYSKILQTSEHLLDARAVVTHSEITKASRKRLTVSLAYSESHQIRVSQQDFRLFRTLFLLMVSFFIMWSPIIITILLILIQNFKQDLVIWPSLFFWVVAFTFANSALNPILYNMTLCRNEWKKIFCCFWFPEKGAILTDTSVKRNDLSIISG
# Method in brief: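 PathHunter CHO-K1 cells with long-form receptor, 3000/well, seeded overnight at 37 °C; equilibrated 60 min at 37 °C in HBSS/20 mM HEPES/0.1% BSA, pH 7.4. Compound serial dilutions (25–0.012 μM) added for 90 min at 37 °C, detection 60 min at room temperature, luminescence read; EC50 from % of positive control, Hill slope fixed at 1.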
Compound,EC50 [1],Dose Responses C57 OGTT (C57bl/6J Mice; 3 mg/kg),Dose Responses C57 OGTT (C57bl/6J Mice; 10 mg/kg),Dose Responses C57 OGTT (C57bl/6J Mice; 30 mg/kg),"C57 OGTT result (C57bl/6J Mice; 30 mg/kg, glucose PO 3 g/kg)"
"CCc1cc2cc(Cl)cc(COc3ccc(CCC(=O)O)c(C)c3C)c2o1 [Compound 11, 3-{4-[(5-Chloro-2-ethyl-1-benzofuran-7-yl)methoxy]-2,3-dimethylphenyl}propanoic acid]",283 nM,−30%,−38%,−43%,
"Cc1cc2cc(F)cc(COc3ccc(CCC(=O)O)c(C)c3C)c2o1 [Compound 2, 3-{4-[(5-Fluoro-2-methyl-1-benzofuran-7-yl)methoxy]-2,3-dimethylphenyl}propanoic acid]",374 nM,−29%,−31%,−51%,
"CCc1cc2cc(Cl)c(C)c(COc3ccc(CCC(=O)O)c(C)c3C)c2o1 [Compound 40, 3-{4-[(5-Chloro-2-ethyl-6-methyl-1-benzofuran-7-yl)methoxy]-2,3-dimethylphenyl}propanoic acid]",107 nM,,,,
"Cc1cc2cc(Cl)cc(COc3c(F)cc(CCCO)cc3F)c2s1 [Compound 93, 3-{4-[(5-Chloro-2-methyl-1-benzothiophen-7-yl)methoxy]-3,5-difluorophenyl}propan-1-ol]",536 nM,,,,

# The next lines start with results.
EC50 [1],Compound,Dose Responses C57 OGTT (C57bl/6J Mice; 3 mg/kg),Dose Responses C57 OGTT (C57bl/6J Mice; 10 mg/kg),Dose Responses C57 OGTT (C57bl/6J Mice; 30 mg/kg),"C57 OGTT result (C57bl/6J Mice; 30 mg/kg, glucose PO 3 g/kg)"
151 nM,"CCc1cc2cc(OC(F)(F)F)cc(COc3ccc(CCC(=O)O)c(C)c3C)c2o1 [Compound 12, 3-(4-{[2-Ethyl-5-(trifluoromethoxy)-1-benzofuran-7-yl]methoxy}-2,3-dimethylphenyl)propanoic acid]",6%,−26%,−30%,
327 nM,"CCc1cc2cc(F)cc(COc3ccc(CCC(=O)O)c(C)c3C)c2o1 [Compound 3, 3-{4-[(2-Ethyl-5-fluoro-1-benzofuran-7-yl)methoxy]-2,3-dimethylphenyl}propanoic acid]",−15%,−24%,−35%,−35
95 nM,"CCc1cc2cc(Br)cc(COc3ccc(CCC(=O)O)c(C)c3C)c2o1 [Compound 45, 3-{4-[(5-Bromo-2-ethyl-1-benzofuran-7-yl)methoxy]-2,3-dimethylphenyl}propanoic acid]",,,,
190 nM,"CCCc1cc2cc(OC(F)(F)F)cc(COc3ccc(CCC(=O)O)c(C)c3C)c2o1 [Compound 35, 3-(2,3-Dimethyl-4-{[2-propyl-5-(trifluoromethoxy)-1-benzofuran-7-yl]methoxy}phenyl)propanoic acid]",,,,
